Results from PubChem BioAssay (NCI).
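Five concentrations, 48 hours, 96-well plates. TGI denotes the concentration required for complete inhibition of growth.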

Experiments:
Assay in all cases: growth of human tumour cells (NCI), 48 h
786-0 renal = tested on: 786-0 renal
CCRF-CEM leukemia = tested on: CCRF-CEM leukemia
KM20L2 colon = tested on: KM20L2 colon
LOX IMVI melanoma = tested on: LOX IMVI melanoma
LXFL 529 NSCLC = tested on: LXFL 529 NSCLC
SK-MEL-2 melanoma = tested on: SK-MEL-2 melanoma
SK-OV-3 ovarian = tested on: SK-OV-3 ovarian
SNB-19 CNS = tested on: SNB-19 CNS
SNB-78 CNS = tested on: SNB-78 CNS
UO-31 renal = tested on: UO-31 renal
SR leukemia = tested on: SR leukemia
T-47D breast = tested on: T-47D breast

Work on C=C(NC(=O)C(=C)NC(=O)c1csc(C2=NC3c4csc(n4)C4NC(=O)c5csc(n5)C(C(C)(O)C(C)O)NC(=O)C5CSC(=N5)/C(=C/C)NC(=O)C(C(C)O)NC(=O)c5csc(n5)C3(CC2)NC(=O)C(C)NC(=O)C(=C)NC(=O)C(C)NC(=O)C(C(C)CC)NC2C=Cc3c(C(C)O)cc(nc3C2O)C(=O)OC4C)n1)C(N)=O (stereo not drawn) yielded a TGI (786-0 renal) of 3.26 µM, a TGI (CCRF-CEM leukemia) of 3.49 µM and a TGI (KM20L2 colon) of 10.7 µM. The TGI (LOX IMVI melanoma) was 2.45 µM, the TGI (LXFL 529 NSCLC) was 1.65 µM and the TGI (SK-MEL-2 melanoma) was 4.12 µM. The TGI (SK-OV-3 ovarian) was > 67.8 µM, the TGI (SNB-19 CNS) was 8.28 µM and the TGI (SNB-78 CNS) was > 100 µM. The TGI (UO-31 renal) was > 100 µM.

With O=C1CC(c2ccccc2)=Nc2ccccc2N1 the TGI (786-0 renal) was > 100 µM, the TGI (CCRF-CEM leukemia) was > 100 µM and the TGI (KM20L2 colon) was > 100 µM. The TGI (LOX IMVI melanoma) was 97.6 µM, the TGI (LXFL 529 NSCLC) was > 100 µM and the TGI (SK-MEL-2 melanoma) was > 100 µM. For the same compound, the TGI (SK-OV-3 ovarian) was > 100 µM, the TGI (SNB-19 CNS) was > 100 µM and the TGI (SNB-78 CNS) was > 100 µM. For the same compound, the TGI (SR leukemia) was > 100 µM and the TGI (UO-31 renal) was > 100 µM.

In the case of C=C1C(=O)O[C@@H]2[C@H](O)[C@@H](C)[C@@H]3C=CC(=O)[C@@]3(C)[C@@H](OC(=O)/C(C)=C/C)[C@H]12, the TGI (CCRF-CEM leukemia) is reported as 2.05 µM, the TGI (KM20L2 colon) is reported as 5.54 µM and the TGI (LOX IMVI melanoma) is reported as 2.88 µM. For the same compound, the TGI (SK-MEL-2 melanoma) was 2.78 µM, the TGI (SK-OV-3 ovarian) was 14.1 µM and the TGI (SNB-19 CNS) was 6.92 µM. The TGI (SNB-78 CNS) was 8.03 µM and the TGI (UO-31 renal) was 10.1 µM.

With O=C(c1ccc(Cl)cc1)N(C(=S)N1CCN(c2ccccn2)CC1)C1CCCCC1 the TGI (786-0 renal) was > 100 µM, the TGI (CCRF-CEM leukemia) was > 100 µM and the TGI (KM20L2 colon) was > 100 µM. For the same compound, the TGI (LOX IMVI melanoma) was > 100 µM, the TGI (LXFL 529 NSCLC) was > 100 µM and the TGI (SK-MEL-2 melanoma) was > 100 µM. The TGI (SK-OV-3 ovarian) was > 100 µM, the TGI (SNB-19 CNS) was > 100 µM and the TGI (SNB-78 CNS) was > 100 µM. The TGI (SR leukemia) was > 100 µM and the TGI (UO-31 renal) was > 100 µM.

COc1ccc([C@@H]2CC(=O)N2)cc1 was tested, and the TGI (786-0 renal) was > 100 µM, the TGI (CCRF-CEM leukemia) was > 100 µM and the TGI (KM20L2 colon) was > 100 µM. For the same compound, the TGI (LXFL 529 NSCLC) was > 100 µM, the TGI (SK-MEL-2 melanoma) was > 100 µM and the TGI (SK-OV-3 ovarian) was > 100 µM. The TGI (SNB-19 CNS) was > 100 µM, the TGI (SNB-78 CNS) was > 100 µM and the TGI (SR leukemia) was > 100 µM. The TGI (UO-31 renal) was > 100 µM.

For O=C(O)c1ccc(C2=Cc3cc(Cl)ccc3OC2)cc1, the TGI (786-0 renal) was > 100 µM, the TGI (CCRF-CEM leukemia) was > 100 µM and the TGI (KM20L2 colon) was > 100 µM. For the same compound, the TGI (LOX IMVI melanoma) was > 100 µM, the TGI (LXFL 529 NSCLC) was > 100 µM and the TGI (SK-MEL-2 melanoma) was > 100 µM. The TGI (SK-OV-3 ovarian) was > 100 µM, the TGI (SNB-19 CNS) was > 100 µM and the TGI (SNB-78 CNS) was > 100 µM. For the same compound, the TGI (SR leukemia) was > 100 µM and the TGI (UO-31 renal) was > 100 µM.

In the case of O=C1/C=C(/c2ccc(O)cc2)[C@@H](O)Cc2ccc(O)cc2O1, the TGI (786-0 renal) is reported as > 100 µM, the TGI (KM20L2 colon) is reported as > 100 µM and the TGI (LOX IMVI melanoma) is reported as > 100 µM. For the same compound, the TGI (LXFL 529 NSCLC) was > 100 µM, the TGI (SK-MEL-2 melanoma) was > 100 µM and the TGI (SK-OV-3 ovarian) was > 100 µM. For the same compound, the TGI (SNB-19 CNS) was > 100 µM, the TGI (SNB-78 CNS) was > 100 µM and the TGI (SR leukemia) was > 100 µM. The TGI (UO-31 renal) was > 100 µM.

With CCOC(=O)C(Cc1c[nH]c2cc([N+](=O)[O-])ccc12)NS(=O)(=O)c1ccc2ccccc2c1 (stereo not drawn) the TGI (786-0 renal) was 76.1 µM, the TGI (CCRF-CEM leukemia) was 49.1 µM and the TGI (KM20L2 colon) was 33.9 µM. For the same compound, the TGI (LOX IMVI melanoma) was 31.6 µM, the TGI (LXFL 529 NSCLC) was 32.5 µM and the TGI (SK-MEL-2 melanoma) was 35.1 µM. For the same compound, the TGI (SK-OV-3 ovarian) was 68.6 µM, the TGI (SNB-19 CNS) was > 100 µM and the TGI (SNB-78 CNS) was 47.7 µM. It also gave a TGI (SR leukemia) of 68.2 µM and a TGI (UO-31 renal) of 63.5 µM.

In the case of O=C(CSc1nc(-c2ccccc2)c(-c2ccccc2)[nH]1)N/N=C/c1ccc(O)cc1, the TGI (786-0 renal) is reported as 54.8 µM, the TGI (CCRF-CEM leukemia) is reported as > 100 µM and the TGI (KM20L2 colon) is reported as 55.8 µM. For the same compound, the TGI (LOX IMVI melanoma) was 43 µM, the TGI (LXFL 529 NSCLC) was 99.5 µM and the TGI (SK-MEL-2 melanoma) was 67.2 µM. For the same compound, the TGI (SK-OV-3 ovarian) was 65.2 µM, the TGI (SNB-19 CNS) was > 100 µM and the TGI (SNB-78 CNS) was > 100 µM. For the same compound, the TGI (SR leukemia) was > 100 µM and the TGI (UO-31 renal) was 93.2 µM.

For NC1=NS(=O)(=O)Nc2nc(-c3ccccc3)[nH]c21, the TGI (786-0 renal) was > 100 µM, the TGI (CCRF-CEM leukemia) was > 100 µM and the TGI (KM20L2 colon) was > 100 µM. For the same compound, the TGI (LOX IMVI melanoma) was > 100 µM, the TGI (LXFL 529 NSCLC) was > 100 µM and the TGI (SK-MEL-2 melanoma) was > 100 µM. The TGI (SK-OV-3 ovarian) was > 100 µM, the TGI (SNB-19 CNS) was > 100 µM and the TGI (SNB-78 CNS) was > 100 µM. The TGI (SR leukemia) was > 100 µM and the TGI (UO-31 renal) was > 100 µM.

In the case of C=C1C(O)C[C@H](OC(C)=O)[C@]2(C)C1C(OC(C)=O)[C@]1(C(C)(C)O)CC(O)C(C)=C1[C@@H](OC(=O)c1ccccc1)C2OC(C)=O (stereo partly drawn), the TGI (786-0 renal) is reported as > 10 µM, the TGI (CCRF-CEM leukemia) is reported as > 10 µM and the TGI (LOX IMVI melanoma) is reported as > 10 µM. The TGI (SK-MEL-2 melanoma) was > 10 µM, the TGI (SK-OV-3 ovarian) was > 10 µM and the TGI (SNB-19 CNS) was > 10 µM. The TGI (SR leukemia) was > 10 µM, the TGI (T-47D breast) was > 10 µM and the TGI (UO-31 renal) was > 10 µM.

With O=[N+]([O-])C(/C=N/Nc1ccccc1)/C=N/Nc1ccccc1 the TGI (786-0 renal) was > 100 µM, the TGI (CCRF-CEM leukemia) was > 100 µM and the TGI (KM20L2 colon) was > 100 µM. For the same compound, the TGI (LOX IMVI melanoma) was > 100 µM, the TGI (LXFL 529 NSCLC) was > 100 µM and the TGI (SK-MEL-2 melanoma) was > 100 µM. For the same compound, the TGI (SK-OV-3 ovarian) was > 100 µM, the TGI (SNB-19 CNS) was > 100 µM and the TGI (SNB-78 CNS) was > 100 µM. The TGI (UO-31 renal) was > 100 µM.
